The record followed here is ChEMBL document CHEMBL5465560, “Selectivity Literature for EUbOPEN Chemogenomic Library” (2024).

Assay [1] has as its target STE20-like serine/threonine-protein kinase (Homo sapiens, UniProt Q9H2G2). The assay is described as follows: Selectivity interaction (ActivX KiNativ screen (ex vivo kinase selectivity in human PBMCs)) EUB0001619a SLK. Type of assay: cell-based. The conditions noted are these: PBMC, at 1 µM.
The target in assay [2] is Mitogen-activated protein kinase kinase kinase kinase 1 (Homo sapiens) (UniProt Q92918). The conditions noted are these: at 10 µM.
The target in assay [3] is Tyrosine-protein kinase CSK (Homo sapiens) (UniProt P41240). The conditions noted are these: at 10 µM.
The target of assay [4] is Cyclin-dependent kinase-like 1 (Homo sapiens) (UniProt Q00532). The conditions noted are these: at 10 µM.
Assay [5] has as its target Serine/threonine-protein kinase PAK 2 (Homo sapiens) (UniProt Q13177). The assay is described as follows: Selectivity interaction (Kinase screening (Nanosyn)) EUB0000604a PAK2.
The target in assay [6] is Cyclin-dependent kinase 5 (Homo sapiens, UniProt Q00535). The assay is described as follows: Selectivity interaction (ActivX KiNativ screen (kinase selectivity in THP-1 cell lysates)) EUB0000639a CDK5. The format is subcellular. The conditions noted are these: lysate, at 5 µM.
In assay [7] the target is Interferon-induced, double-stranded RNA-activated protein kinase (Homo sapiens) (UniProt P19525). The assay is described as follows: Selectivity interaction (ProQinase) EUB0000171b EIF2AK2.
The target of assay [8] is T1, Ephrin type-A receptor 8 (Homo sapiens) (UniProt P29322).
T1 sequence (whole entry): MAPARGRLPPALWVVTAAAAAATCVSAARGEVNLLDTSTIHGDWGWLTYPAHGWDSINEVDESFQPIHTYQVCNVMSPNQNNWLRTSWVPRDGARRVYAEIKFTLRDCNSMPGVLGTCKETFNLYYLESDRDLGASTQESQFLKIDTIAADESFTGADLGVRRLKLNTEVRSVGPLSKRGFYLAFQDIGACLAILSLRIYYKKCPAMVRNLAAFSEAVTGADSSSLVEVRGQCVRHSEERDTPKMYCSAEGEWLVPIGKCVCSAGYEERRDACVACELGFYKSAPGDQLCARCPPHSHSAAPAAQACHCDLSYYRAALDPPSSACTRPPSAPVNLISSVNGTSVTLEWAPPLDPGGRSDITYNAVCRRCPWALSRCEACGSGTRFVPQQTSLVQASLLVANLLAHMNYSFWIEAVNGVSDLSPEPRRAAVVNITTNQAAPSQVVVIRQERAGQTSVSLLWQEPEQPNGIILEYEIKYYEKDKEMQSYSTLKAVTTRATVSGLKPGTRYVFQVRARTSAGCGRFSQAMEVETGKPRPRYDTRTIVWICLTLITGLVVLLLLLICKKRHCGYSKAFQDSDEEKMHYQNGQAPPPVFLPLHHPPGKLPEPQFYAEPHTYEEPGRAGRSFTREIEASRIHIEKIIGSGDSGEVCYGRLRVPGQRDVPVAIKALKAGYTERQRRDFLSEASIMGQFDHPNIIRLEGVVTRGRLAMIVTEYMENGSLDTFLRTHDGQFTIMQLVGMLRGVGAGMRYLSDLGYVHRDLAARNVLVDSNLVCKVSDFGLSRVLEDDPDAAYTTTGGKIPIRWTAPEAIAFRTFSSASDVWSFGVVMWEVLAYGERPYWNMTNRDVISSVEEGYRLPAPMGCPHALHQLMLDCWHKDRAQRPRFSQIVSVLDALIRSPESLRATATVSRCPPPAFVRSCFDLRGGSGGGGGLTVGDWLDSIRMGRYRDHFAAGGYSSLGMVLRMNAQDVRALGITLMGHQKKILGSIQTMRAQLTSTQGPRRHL
The assay is described as follows: Selectivity interaction (ProQinase) EUB0000171b EPHA8.

Assay [9] deals with T2, Discoidin domain-containing receptor 2 (Homo sapiens) (UniProt Q16832).
T2 sequence (whole entry): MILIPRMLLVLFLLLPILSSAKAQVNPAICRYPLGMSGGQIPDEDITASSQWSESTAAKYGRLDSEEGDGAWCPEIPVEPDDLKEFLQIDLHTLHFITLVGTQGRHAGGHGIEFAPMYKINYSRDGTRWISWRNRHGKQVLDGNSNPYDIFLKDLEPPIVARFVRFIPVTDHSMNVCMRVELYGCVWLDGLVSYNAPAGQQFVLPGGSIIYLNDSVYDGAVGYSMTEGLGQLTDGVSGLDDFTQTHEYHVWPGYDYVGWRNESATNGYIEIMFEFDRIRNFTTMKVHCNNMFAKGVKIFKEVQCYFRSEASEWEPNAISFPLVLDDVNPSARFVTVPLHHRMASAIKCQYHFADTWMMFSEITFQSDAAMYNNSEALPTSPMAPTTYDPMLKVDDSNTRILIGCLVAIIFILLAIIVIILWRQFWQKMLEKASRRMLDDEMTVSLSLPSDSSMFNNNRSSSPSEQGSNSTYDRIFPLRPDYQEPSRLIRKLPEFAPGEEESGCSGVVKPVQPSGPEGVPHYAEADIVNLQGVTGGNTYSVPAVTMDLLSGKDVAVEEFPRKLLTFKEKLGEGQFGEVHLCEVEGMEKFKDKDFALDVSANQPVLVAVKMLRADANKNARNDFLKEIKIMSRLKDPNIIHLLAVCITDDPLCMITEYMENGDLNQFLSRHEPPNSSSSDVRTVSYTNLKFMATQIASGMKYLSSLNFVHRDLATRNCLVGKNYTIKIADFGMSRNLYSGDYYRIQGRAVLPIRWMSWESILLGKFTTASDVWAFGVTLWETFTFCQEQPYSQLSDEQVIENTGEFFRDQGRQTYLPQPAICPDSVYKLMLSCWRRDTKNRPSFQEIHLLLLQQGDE
The assay is described as follows: Selectivity interaction (Upstate Kinase Profiler service (Millipore)) EUB0000056c DDR2. The note with it: at 1 µM.

For assay [10], the target named is Fibroblast growth factor receptor 4 (Homo sapiens, UniProt P22455). The assay is described as follows: Selectivity interaction (Kinase panel (33PanQinase(R) Activity Assay)) EUB0000877a FGFR4.
Assay [11] addresses Non-receptor tyrosine-protein kinase TYK2 (Homo sapiens, UniProt P29597). The assay is described as follows: Selectivity interaction (KinomeScan (DiscoverX)) EUB0000655a TYK2. The conditions noted are these: at 10 µM.
Assay [12] deals with Polycomb protein SUZ12 (Homo sapiens) (UniProt Q15022). The assay is described as follows: Selectivity interaction (Methyltransferase screen (radiometric assays, panel of 8 PRMTs, 21 protein lysine methyltransferases, 3 DNA methyltransferases, and one RNA methyltransferase)) EUB0000271b SUZ12.

pIC50: −log10 of the molar value.

Interferon-induced, double-stranded RNA-activated protein kinase (Homo sapiens), sequence (P19525 whole entry): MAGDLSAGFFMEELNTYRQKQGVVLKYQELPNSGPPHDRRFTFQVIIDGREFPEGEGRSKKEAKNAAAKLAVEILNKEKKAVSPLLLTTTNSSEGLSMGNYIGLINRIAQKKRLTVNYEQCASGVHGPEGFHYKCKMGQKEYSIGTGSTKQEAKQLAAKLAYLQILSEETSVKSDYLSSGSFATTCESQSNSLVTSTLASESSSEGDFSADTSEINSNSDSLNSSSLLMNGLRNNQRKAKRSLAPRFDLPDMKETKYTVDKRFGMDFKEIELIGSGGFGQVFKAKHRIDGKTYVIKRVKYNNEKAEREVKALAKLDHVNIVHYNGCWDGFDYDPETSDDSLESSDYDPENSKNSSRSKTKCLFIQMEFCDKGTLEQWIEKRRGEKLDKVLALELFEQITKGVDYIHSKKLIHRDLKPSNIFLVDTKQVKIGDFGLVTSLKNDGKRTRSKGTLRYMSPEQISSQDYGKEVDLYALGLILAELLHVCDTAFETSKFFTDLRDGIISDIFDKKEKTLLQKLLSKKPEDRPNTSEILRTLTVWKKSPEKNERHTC
Polycomb protein SUZ12 (Homo sapiens), sequence (Q15022 whole entry): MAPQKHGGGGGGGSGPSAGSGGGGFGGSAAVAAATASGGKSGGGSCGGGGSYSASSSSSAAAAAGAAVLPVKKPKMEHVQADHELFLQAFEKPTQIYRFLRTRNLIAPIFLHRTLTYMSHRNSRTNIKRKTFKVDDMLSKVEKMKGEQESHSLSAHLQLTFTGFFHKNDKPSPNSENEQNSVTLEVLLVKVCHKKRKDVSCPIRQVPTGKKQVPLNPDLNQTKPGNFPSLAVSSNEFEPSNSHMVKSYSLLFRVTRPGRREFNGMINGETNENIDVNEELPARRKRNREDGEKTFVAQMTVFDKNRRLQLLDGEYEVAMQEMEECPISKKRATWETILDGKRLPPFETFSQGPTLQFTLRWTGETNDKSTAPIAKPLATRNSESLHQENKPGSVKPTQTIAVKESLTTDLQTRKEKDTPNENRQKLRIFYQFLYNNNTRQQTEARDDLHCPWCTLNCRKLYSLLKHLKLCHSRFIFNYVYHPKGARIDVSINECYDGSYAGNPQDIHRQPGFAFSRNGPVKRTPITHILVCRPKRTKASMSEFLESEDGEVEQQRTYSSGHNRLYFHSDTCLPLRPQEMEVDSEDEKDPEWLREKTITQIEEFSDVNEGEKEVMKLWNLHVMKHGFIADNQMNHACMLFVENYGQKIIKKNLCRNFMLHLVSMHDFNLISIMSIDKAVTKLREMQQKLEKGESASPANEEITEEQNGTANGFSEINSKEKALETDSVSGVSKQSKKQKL
Cyclin-dependent kinase 5, sequence (Q00535 whole entry, looked up): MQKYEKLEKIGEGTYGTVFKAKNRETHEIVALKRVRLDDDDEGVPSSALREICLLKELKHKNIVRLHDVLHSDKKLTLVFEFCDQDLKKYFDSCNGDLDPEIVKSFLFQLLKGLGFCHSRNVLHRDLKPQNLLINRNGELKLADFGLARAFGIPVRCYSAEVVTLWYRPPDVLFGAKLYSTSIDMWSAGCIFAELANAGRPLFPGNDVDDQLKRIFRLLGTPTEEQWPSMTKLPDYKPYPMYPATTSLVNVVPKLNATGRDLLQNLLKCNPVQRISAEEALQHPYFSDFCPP
Mitogen-activated protein kinase kinase kinase kinase 1 (Homo sapiens), sequence (Q92918 whole entry, looked up): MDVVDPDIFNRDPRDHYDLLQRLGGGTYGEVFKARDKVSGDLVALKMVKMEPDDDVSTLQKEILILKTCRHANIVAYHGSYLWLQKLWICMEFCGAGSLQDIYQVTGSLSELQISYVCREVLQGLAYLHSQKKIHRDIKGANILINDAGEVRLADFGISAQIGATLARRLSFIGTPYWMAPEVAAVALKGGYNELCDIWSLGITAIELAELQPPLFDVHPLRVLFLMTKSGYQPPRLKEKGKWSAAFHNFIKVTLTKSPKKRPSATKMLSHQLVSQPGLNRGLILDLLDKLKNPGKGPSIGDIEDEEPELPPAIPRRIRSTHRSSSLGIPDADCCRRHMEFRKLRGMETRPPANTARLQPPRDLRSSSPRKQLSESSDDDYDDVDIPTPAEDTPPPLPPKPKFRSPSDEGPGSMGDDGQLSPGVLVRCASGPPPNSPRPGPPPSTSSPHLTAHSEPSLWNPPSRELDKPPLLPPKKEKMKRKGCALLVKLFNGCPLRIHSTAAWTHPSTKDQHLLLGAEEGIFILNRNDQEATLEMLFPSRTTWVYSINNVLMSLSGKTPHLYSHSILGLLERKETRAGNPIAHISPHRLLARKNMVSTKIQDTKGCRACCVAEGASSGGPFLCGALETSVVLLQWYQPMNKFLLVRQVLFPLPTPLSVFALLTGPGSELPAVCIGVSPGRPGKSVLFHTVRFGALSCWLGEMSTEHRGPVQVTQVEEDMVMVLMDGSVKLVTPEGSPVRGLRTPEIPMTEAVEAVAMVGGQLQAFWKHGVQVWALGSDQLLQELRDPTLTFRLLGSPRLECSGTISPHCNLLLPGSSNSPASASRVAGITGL
Serine/threonine-protein kinase PAK 2 (Homo sapiens), sequence (Q13177 whole entry): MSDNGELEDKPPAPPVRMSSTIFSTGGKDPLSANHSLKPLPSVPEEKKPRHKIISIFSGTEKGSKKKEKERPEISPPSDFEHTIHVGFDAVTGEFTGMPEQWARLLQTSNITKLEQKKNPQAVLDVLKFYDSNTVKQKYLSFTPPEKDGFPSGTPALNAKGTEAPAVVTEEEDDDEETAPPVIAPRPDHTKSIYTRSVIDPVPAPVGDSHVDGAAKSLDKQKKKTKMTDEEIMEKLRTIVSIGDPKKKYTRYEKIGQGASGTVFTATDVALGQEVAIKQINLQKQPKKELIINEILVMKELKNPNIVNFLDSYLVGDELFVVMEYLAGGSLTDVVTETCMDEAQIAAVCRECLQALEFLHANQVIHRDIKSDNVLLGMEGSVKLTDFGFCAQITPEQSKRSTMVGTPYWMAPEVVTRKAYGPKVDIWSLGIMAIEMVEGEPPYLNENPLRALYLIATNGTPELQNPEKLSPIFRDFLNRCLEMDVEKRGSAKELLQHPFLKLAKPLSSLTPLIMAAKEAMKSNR
Tyrosine-protein kinase CSK (Homo sapiens), sequence (P41240 2-450 limits assumed): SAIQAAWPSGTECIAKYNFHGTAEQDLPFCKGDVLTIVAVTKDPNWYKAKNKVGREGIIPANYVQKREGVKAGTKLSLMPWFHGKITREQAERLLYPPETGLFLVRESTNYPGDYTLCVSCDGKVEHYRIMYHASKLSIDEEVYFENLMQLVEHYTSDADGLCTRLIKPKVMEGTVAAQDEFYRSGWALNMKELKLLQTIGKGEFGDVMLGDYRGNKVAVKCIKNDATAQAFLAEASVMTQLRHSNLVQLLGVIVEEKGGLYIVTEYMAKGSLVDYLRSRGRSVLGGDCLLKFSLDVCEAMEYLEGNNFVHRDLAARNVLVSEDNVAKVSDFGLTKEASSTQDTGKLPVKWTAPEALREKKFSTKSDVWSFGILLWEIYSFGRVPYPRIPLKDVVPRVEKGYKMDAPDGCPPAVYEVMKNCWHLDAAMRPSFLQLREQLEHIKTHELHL
STE20-like serine/threonine-protein kinase, sequence (Q9H2G2 whole entry, looked up): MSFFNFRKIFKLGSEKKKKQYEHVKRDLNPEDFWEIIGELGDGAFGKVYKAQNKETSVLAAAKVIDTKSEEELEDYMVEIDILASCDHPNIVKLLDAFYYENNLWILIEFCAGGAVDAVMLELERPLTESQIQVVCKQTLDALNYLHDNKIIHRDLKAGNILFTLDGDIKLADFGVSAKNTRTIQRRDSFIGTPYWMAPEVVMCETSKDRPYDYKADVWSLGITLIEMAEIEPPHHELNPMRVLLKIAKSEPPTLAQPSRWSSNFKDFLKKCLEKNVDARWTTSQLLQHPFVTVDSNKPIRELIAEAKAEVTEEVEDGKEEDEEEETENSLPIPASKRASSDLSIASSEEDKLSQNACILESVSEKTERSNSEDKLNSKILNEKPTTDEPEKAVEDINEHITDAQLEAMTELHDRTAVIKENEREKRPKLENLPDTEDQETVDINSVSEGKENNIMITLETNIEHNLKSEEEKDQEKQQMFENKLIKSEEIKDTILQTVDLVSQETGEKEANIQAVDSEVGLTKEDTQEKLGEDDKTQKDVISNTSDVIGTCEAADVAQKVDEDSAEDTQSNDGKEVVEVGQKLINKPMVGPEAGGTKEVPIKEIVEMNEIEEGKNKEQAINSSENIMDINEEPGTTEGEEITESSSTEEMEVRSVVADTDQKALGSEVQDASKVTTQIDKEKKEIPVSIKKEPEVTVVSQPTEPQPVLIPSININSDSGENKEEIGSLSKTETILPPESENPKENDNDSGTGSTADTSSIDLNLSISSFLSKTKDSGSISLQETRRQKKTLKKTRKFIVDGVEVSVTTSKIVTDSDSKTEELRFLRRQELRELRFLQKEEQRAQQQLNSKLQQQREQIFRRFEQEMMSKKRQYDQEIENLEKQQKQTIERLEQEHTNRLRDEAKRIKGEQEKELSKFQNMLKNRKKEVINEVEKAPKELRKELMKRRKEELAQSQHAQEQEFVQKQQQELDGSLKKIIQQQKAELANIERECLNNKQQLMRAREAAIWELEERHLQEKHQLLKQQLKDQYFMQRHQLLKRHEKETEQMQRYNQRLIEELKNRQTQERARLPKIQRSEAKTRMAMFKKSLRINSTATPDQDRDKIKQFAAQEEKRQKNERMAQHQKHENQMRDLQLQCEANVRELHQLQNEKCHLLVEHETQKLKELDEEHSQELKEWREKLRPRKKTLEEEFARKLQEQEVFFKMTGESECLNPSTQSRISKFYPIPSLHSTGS
Cyclin-dependent kinase-like 1 (Homo sapiens), sequence (Q00532 whole entry): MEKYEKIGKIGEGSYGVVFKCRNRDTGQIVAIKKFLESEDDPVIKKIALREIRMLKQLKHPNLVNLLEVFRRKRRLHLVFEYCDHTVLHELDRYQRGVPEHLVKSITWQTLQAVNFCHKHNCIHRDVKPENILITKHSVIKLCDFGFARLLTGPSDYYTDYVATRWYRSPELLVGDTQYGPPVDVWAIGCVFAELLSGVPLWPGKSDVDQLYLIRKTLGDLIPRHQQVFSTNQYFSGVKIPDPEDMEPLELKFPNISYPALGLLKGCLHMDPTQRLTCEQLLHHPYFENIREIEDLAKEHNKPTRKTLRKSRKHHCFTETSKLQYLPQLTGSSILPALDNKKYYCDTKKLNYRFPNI

Regarding `N#Cc1cccc(-c2c[nH]c3ncnc(N4CCOCC4)c23)c1`, the % of inhibition in assay [1] amounted to 61%.

Molecule `CCN(CC)CCCCNc1ncc2cc(-c3cc(OC)cc(OC)c3)c(NC(=O)NC(C)(C)C)nc2n1` had a % of control in assay [2] of 100%.

As to `Cc1cc([C@@H](C)Nc2ccccc2C(=O)O)c2nc(N3CCOCC3)cc(=O)n2c1` [AZD-6482], the % of control in assay [3] and in [4] was 100% in each case.

Regarding `Cc1cnc(Nc2ccc(F)cc2Cl)nc1-c1c[nH]c(C(=O)N[C@H](CO)c2cccc(Cl)c2)c1`, in assay [5], the % of inhibition stood at 0%.

As to `CC[C@@H]1[C@H](F)C(=O)N[C@@H]1COc1nccc2cc(C(N)=O)c(OC)cc12` [ZIMLOVISERTIB], the % of inhibition in [6] is -23.1%.

On to `C=CC(=O)Nc1cccc(C(=O)Nc2ccc(Nc3cc(-c4[nH]c(SC)nc4C)ccn3)cc2)c1`, for which the % of control in assay [7] (at 1 µM) was found to be 84%; in assay [7] (at 5 µM), 55%; in [8] (at 1 µM) it was 96%; in [8] (at 5 µM), 99%.

On to `Cc1ccc(-c2ccc3c(ccc4sc5c(c43)NC[C@@H](C)NC5=O)n2)cn1`, for which the % of inhibition in [9] is -6%.

As for `CCC(=O)N1CC[C@H](Nc2ncnc3c2CN(c2cnc(OC)c(C(F)(F)F)c2)CC3)C1` [LENIOLISIB], in assay [10], the pIC50 is less than 5.00.

`CN(C)CCOc1ccc(-c2nc(-c3ccncc3)c(-c3ccc4c(c3)CC/C4=N\O)[nH]2)cc1` showed a % of control in assay [11] of 52%.

Turning to `Cc1cc(C)cc([C@@H]2c3cc(C)ccc3NC(=O)CN2C(=O)c2ccc(Br)s2)c1`, the % of activity in [12] (at 1 µM) and in [12] (at 10 µM) was 101% throughout.

As a reminder, the pIC50 is the negative decadic logarithm of the IC50, by convention in mol/L. A low value points to a high IC50.
